Assay results reported in paper PMC5678437, “A new antagonist for CCR4 attenuates allergic lung inflammation in a mouse model of asthma” (Scientific Reports, 2017).
pIC50: −log10 of the molar value. Where two headings read alike, the source gives them in different places.

What was measured:
[1] = test system: OVA-induced asthmatic mice; assay: BALF total cell and cell differential counts in OVA-induced asthmatic mice; type: in vivo, BALB/c mice; conditions: for total cells count in BALF: vs vehicle
Procedure: Male BALB/c 6 week old mice were purchased from the Experimental Animal Center of Zhejiang University. All mice were raised in a specific pathogen-free animal facility. All animal experiments were carried out according to the guidelines for the care and use of laboratory animals and were approved by the ethics committee of Zhejiang University and Peking University, China.
Mice were sensitized and challenged with chicken egg OVA (sigma-Aldrich, St Louis, MO, USA) as described in details previously. Briefly, after sensitized by intraperitoneal injection of 100 μl (80 μg) OVA in 100 μl alum (Pierce, Rockford, IL, USA) on days 0 and 14, mice were exposure to 1% OVA aerosols for 40 min on days 24–26. Control mice were injected intraperitoneally with saline and exposed to saline aerosols.
Compound 8a was dissolved in saline with DMSO (0.5%). Half an hour before each OVA challenge, the groups of mice treated with various doses of compound 8a (0.2, 1, 5 mg) inhaled aerosolized compound 8a for 45 min on days 24–26. Compound 8a aerosols were produced by using a Plexiglas chamber and ultrasonic nebulizer. While the budesonide (BUD) group were administered with 5 mg budesonide, and the vehicle group were treated with compound-dissolved vehicle. The Saline was treated as the control.
Twenty-four hours after the last exposure, collection of BALF and cell count was performed as previously described. Briefly, lavage was performed by instilling 0.4 ml PBS into lungs and with drawn to collect the cells three times. Total BALF cells were counted. After be centrifuged, the remaining cells was spun onto glass slides, and stained with Wright–Giemsa stain. Differential counts were evaluated by counting 400 total cells.

CCR4 = target: T1, CCR4 (Homo sapiens, UniProt P51679); assay: Radio ligand competition binding assay on CCR4 cell membrane extract; conditions: HEK293 CCR4 cell membrane extract, 4 °C, 24 h
T1 construct: expressed in transfected cells; cell membrane extract
T1 sequence (P51679 1-360): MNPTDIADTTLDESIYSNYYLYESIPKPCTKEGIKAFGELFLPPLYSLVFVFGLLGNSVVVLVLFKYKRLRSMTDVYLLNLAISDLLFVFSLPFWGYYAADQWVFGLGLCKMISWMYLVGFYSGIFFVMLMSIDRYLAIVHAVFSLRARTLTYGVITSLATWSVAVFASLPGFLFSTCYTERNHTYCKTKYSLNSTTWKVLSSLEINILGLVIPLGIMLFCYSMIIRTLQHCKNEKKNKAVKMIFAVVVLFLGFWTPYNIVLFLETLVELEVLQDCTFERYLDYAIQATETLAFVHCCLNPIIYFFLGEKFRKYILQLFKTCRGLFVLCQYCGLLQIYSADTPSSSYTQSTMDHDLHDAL
Procedure: A HEK293 cell line stably expressing CCR4-enhanced green fluorescent protein was established. CCL22, CCL17 and C27 were labeled with [^125I]. For competition binding assays, equivalent quantities of cell membrane extract and [^125I]-CCL22, [^125I]-CCL17 and [^125I]-C27 were incubated with varying quantities of unlabeled compound 8a, compound 6b and compound 22. All reactions were incubated at 4 °C for 24 h. After the binding step, 25% polyethylene glycol (6000–8000) and 0.5% human g-globulin were added, and the mixture was incubated at room temperature for 15 min. Binding complexes were obtained by centrifuging the mixture at 3500 rpm for 20 min at 4 °C, and radioactivity was evaluated. Results were corrected for “blank” background radiation, defined as the radioactivity precipitated by polyethylene glycol–g-globulin from the same amount of radioactive ligand in binding buffer in the absence of cells.

HEK293-CCR4 cells = assay: MTT assay; type: cell-based; conditions: 1, 2, 4, 8, 16 μM, till the higher concentration (16 μM), 48 h
Procedure: pcDI-CCR4-transfected HEK293 cells, at the density of 800 cells /well, were plated overnight in 96-well plates. After plated overnight, different concentrations of compound 22 and compound 8a were added in cells and the final concentrations of these two compounds were: 1 μM, 2 μM, 4 μM, 8 μM and 16 μM. We set four wells for cells in each group which were incubated with each concentration of the compounds, and the cells were cultured for 48 h or 72 h. At 48 h or 72 h, 10 μl of the 5 mM MTT were added in cells and 100 μl of cell lysis buffer were added 4–6 h later. After added cell lysis buffer for an hour, microplate autoreader were used for measuring optical density (OD) of cells at 570 nm, and the ratio of OD in each group and that of DMSO group were valued as cell survival rates of each group.

CCR6 = target: T2, CCR6 (Homo sapiens, UniProt P51684); assay: Chemotaxis inhibition assay for receptor specificity, HEK293-CCR6; type: cell-based; conditions: 0.2, 1, 5, 25 μM, 30 min pretreatment
T2 construct: expressed in transfected cells; host or cells: HEK293, pcDI-CCR6 plasmid made in the authors' laboratory
T2 sequence (P51684 1-374): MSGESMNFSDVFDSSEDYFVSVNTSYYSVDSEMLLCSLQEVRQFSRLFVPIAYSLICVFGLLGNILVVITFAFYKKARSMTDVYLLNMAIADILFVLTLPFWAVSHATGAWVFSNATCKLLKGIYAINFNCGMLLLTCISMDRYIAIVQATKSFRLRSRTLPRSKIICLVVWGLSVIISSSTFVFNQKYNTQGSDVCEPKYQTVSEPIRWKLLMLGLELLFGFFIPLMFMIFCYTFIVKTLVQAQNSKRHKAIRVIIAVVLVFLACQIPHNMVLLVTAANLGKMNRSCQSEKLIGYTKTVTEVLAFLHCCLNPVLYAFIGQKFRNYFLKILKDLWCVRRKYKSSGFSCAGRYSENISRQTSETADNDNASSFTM
Procedure: HEK293 cells were transfected with different chemokine receptors. The corresponding chemokines of different receptors were placed in the lower chambers. The transfected cells were pretreated with different concentrations of Compound 8a or 1‰ DMSO for 30 min at a density of 1 × 10^6 cells/ml and added to the upper chambers, the final concentration of the compound is: 0.2 μM, 1 μM, 5 μM, and 25 μM, respectively.

[2] = 5 mg inhaled aerosol, compared with vehicle treated group
[3] = compound 8a 0.2, 1, 5 mg, budesonide 5 mg, inhaled aerosol

pIC50 (CCR4; [125I]-C27, read-out: IC50, competitive binding with C27 to CCR4): 7.21 | pIC50 (CCR4; [125I]-CCL17, read-out: IC50, competitive binding with CCL17 to CCR4): 6.82 | pIC50 (CCR4; [125I]-CCL22, read-out: IC50, competitive binding with CCL22 to CCR4): 6.56 | inhibition of chemotaxis of HEK293-CCR6 to its ligand (CCR6): few influence
SMILES: O=C(C1CCCCN1)N1CCN(c2nc(Cl)cc(NCc3ccc(Cl)cc3Cl)n2)CC1 (stereo not drawn) [compound 8a, {4-[4-Chloro-6-(2,4-dichloro-benzylamino)-pyrimidin-2-yl]-piperazin-1-yl}-piperidin-2-yl-methanone]
total cells count in BALF ([1]; 0.2 mg inhaled aerosol): marginal | total cells count in BALF ([1]; 1 mg inhaled aerosol): remarkably inhibitory effect | absolute number of eosinophils in BALF [1, 2]: significantly decreased | absolute number of lymphocytes in BALF [1, 2]: significantly decreased | total cells count in BALF ([1]; 5 mg inhaled aerosol): remarkably inhibitory effect | number of macrophages in BALF [1, 3]: neither compound 8a nor budesonide affect | number of neutrophils in BALF [1, 3]: neither compound 8a nor budesonide affect | cytotoxicity (MTT) (HEK293-CCR4 cells): no obvious cytotoxicity
